Test results: patent US8530493B2, “Indolopyridines as Eg5 kinesin modulators” (4SC AG, priority 2006, dated 2013)

Tested on: RKO p21 uninduced (proliferating) colon adenocarcinoma cells
Experiment: Alamar Blue cell viability assay, RKO p21 uninduced (proliferating)
Assay type: cell-based
Settings: Homo sapiens, Table B3, anti-proliferative/cytotoxic activity, 72 hours, read-out: −log EC50 RKO p21 uninduced (proliferating) (converted)
Procedure, shortened: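 RKO p21 or p27 subclones grown without Ponasterone A, i.e. proliferating, exposed 24 h after seeding to semi-log compound dilutions in DMEM/10% FCS (1% DMSO controls) for 72 h at 37° C. Alamar Blue fluorescence (544/590 nm) read relative to untreated cells; EC50 from dose-response curves, given as −log EC50 (mol/l).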

Structure (SMILES) | EC50 [nM]
COc1cc2c3c([nH]c2cc1F)[C@@H](c1cccc(O)c1)N1C(=O)N(CCCNCCO)C(=O)[C@]1(C)C3 (racemic) [Example 305, (3aSR,10RS)-7-Fluoro-2-[3-(2-hydroxy-ethylamino)-propyl]-10-(3-hydroyx-phenyl)-6-methoxy-3a-methyl-3a,4,9,10-tetrahydro-2,9,10a-triaza-cyclopenta[b]fluorene-1,3-dione] | 39.8 to 251
CCN(C)CCN1C(=O)N2[C@H](c3cccc(O)c3)c3[nH]c4cc(F)c(Cl)cc4c3C[C@@]2(C)C1=O (racemic) [Example 347, (3aSR,10RS)-6-Chloro-2-[2-(ethyl-methyl-amino)-ethyl]-7-fluoro-10-(3-hydroxy-phenyl)-3a-methyl-3a,4,9,10-tetrahydro-2,9,10a-triaza-cyclopenta[b]fluorene-1,3-dione] | ≤ 39.8
CCOc1ccc2[nH]c3c(c2c1)C[C@@]1(C)C(=O)N(CCN(CC)CC)C(=O)N1[C@@H]3c1cccc(O)c1 (racemic) [Example 162, (3aSR,10RS)-2-(2-Diethylamino-ethyl)-6-ethoxy-10-(3-hydroxy-phenyl)-3a-methyl-3a,4,9,10-tetrahydro-2,9,10a-triaza-cyclopenta[b]fluorene-1,3-dione] | 39.8 to 251
COc1ccc2[nH]c3c(c2c1)C[C@@]1(C)C(=O)N(CCCNC(C)(C)C)C(=O)N1[C@@H]3c1cccc(O)c1 (racemic) [Example 167, (3aSR,10RS)-2-(3-tert-Butylamino-propyl)-10-(3-hydroxy-phenyl)-6-methoxy-3a-methyl-3a,4,9,10-tetrahydro-2,9,10a-triaza-cyclopenta[b]fluorene-1,3-dione] | ≤ 39.8
C#CCNCCN1C(=O)N2[C@H](c3cccc(O)c3)c3[nH]c4ccc(OC(F)F)cc4c3C[C@@]2(C)C1=O (racemic) [Example 287, (3aSR,10RS)-6-(1,1-Difluoro-methoxy)-10-(3-hydroxy-phenyl)-3a-methyl-2-(2-prop-2-ynylamino-ethyl)-3a,4,9,10-tetrahydro-2,9,10a-triaza-cyclopenta[b]fluorene-1,3-dione] | 39.8 to 251
COc1cc2c3c([nH]c2cc1F)[C@@H](c1cccc(O)c1)N1C(=O)N(CCN2CCCC2)C(=O)[C@]1(C)C3 (racemic) [Example 261, (3aSR,10RS)-7-Fluoro-10-(3-hydroxy-phenyl)-6-methoxy-3a-methyl-2-(2-pyrrolidin-1-yl-ethyl)-3a,4,9,10-tetrahydro-2,9,10a-triaza-cyclopenta[b]fluorene-1,3-dione] | 39.8 to 251
COc1ccc2[nH]c3c(c2c1)C[C@@]1(C)C(=O)N(CCCCl)C(=O)N1[C@@H]3c1cccc(O)c1 [Example 55a, (3aS,10R)-2-(3-Chloro-propyl)-10-(3-hydroxy-phenyl)-6-methoxy-3a-methyl-3a,4,9,10-tetrahydro-2,9,10a-triaza-cyclopenta[b]fluorene-1,3-dione] | 39.8 to 251
C=CCN(C)CCCN1C(=O)N2[C@H](c3cccc(O)c3)c3[nH]c4ccc(Br)cc4c3C[C@@]2(C)C1=O (racemic) [Example 371, (3aSR,10RS)-2-[3-(Allyl-methyl-amino)-propyl]-6-bromo-10-(3-hydroxy-phenyl)-3a-methyl-3a,4,9,10-tetrahydro-2,9,10a-triaza-cyclopenta[b]fluorene-1,3-dione] | ≤ 39.8
CCN(CC)CCCN1C(=O)N2[C@H](c3cccc(O)c3)c3[nH]c4ccc(OC(F)F)cc4c3C[C@@]2(C)C1=O (racemic) [Example 176, (3aSR,10RS)-2-(3-Diethylamino-propyl)-6-(1,1-difluoro-methoxy)-10-(3-hydroxy-phenyl)-3a-methyl-3a,4,9,10-tetrahydro-2,9,10a-triaza-cyclopenta[b]fluorene-1,3-dione] | ≤ 39.8
CCOc1ccc2[nH]c3c(c2c1)C[C@@]1(C)C(=O)N(CCN(C)C(C)C)C(=O)N1[C@@H]3c1cccc(O)c1 (racemic) [Example 163, (3aSR,10RS)-6-Ethoxy-10-(3-hydroxy-phenyl)-2-[2-(isopropyl-methyl-amino)-ethyl]-3a-methyl-3a,4,9,10-tetrahydro-2,9,10a-triaza-cyclopenta[b]fluorene-1,3-dione] | ≤ 39.8
CCN(C)CCCN1C(=O)N2[C@H](c3cccc(O)c3)c3[nH]c4cc(F)c(Cl)cc4c3C[C@@]2(C)C1=O (racemic) [Example 467, (3aSR,10RS)-6-Chloro-2-[3-(ethyl-methyl-amino)-propyl]-7-fluoro-10-(3-hydroxy-phenyl)-3a-methyl-3a,4,9,10-tetrahydro-2,9,10a-triaza-cyclopenta[b]fluorene-1,3-dione] | ≤ 39.8
COCCNCCN1C(=O)N2[C@H](c3cccc(O)c3)c3[nH]c4cc(F)c(Cl)cc4c3C[C@@]2(C)C1=O (racemic) [Example 343, (3aSR,10RS)-6-Chloro-7-fluoro-10-(3-hydroxy-phenyl)-2-[2-(2-methoxy-ethylamino)-ethyl]-3a-methyl-3a,4,9,10-tetrahydro-2,9,10a-triaza-cyclopenta[b]fluorene-1,3-dione] | ≤ 39.8
COc1ccc2[nH]c3c(c2c1F)C[C@@]1(C)C(=O)N(CCNC(C)(C)C)C(=O)N1[C@@H]3c1cccc(O)c1 (racemic) [Example 414, (3aSR,10RS)-2-(2-tert-Butylamino-ethyl)-5-fluoro-10-(3-hydroxy-phenyl)-6-methoxy-3a-methyl-3a,4,9,10-tetrahydro-2,9,10a-triaza-cyclopenta[b]fluorene-1,3-dinone] | 39.8 to 251
C=CCN(C)CCN1C(=O)N2[C@H](c3cccc(O)c3)c3[nH]c4ccc(OCC)cc4c3C[C@@]2(C)C1=O (racemic) [Example 300, (3aSR,10RS)-2-[2-(Allyl-methyl-amino)-ethyl]-6-ethoxy-10-(3-hydroxy-phenyl)-3a-methyl-3a,4,9,10-tetrahydro-2,9,10a-triaza-cyclopenta[b]fluorene-1,3-dione] | 39.8 to 251
COc1ccc2[nH]c3c(c2c1)C[C@@]1(C)C(=O)N(CCCNCC2CC2)C(=O)N1[C@@H]3c1cccc(O)c1 [Example 535, (3aS,10R)-2-[3-(Cyclopropylmethyl-amino)-propyl]-10-(3-hydroxy-phenyl)-6-methoxy-3a-methyl-3a,4,9,10-tetrahydro-2,9,10a-triaza-cyclopenta[b]fluorene-1,3-dione] | ≤ 39.8
C[C@@]12Cc3c([nH]c4cc(F)c(Cl)cc34)[C@@H](c3cccc(O)c3)N1C(=O)N(CCCN1CCCCC1)C2=O (racemic) [Example 478, (3aSR,10RS)-6-Chloro-7-fluoro-10-(3-hydroxy-phenyl)-3a-methyl-2-(3-piperidin-1-yl-propyl)-3a,4,9,10-tetrahydro-2,9,10a-triaza-cyclopenta[b]fluorene-1,3-dione] | ≤ 39.8
CCOc1ccc2[nH]c3c(c2c1)C[C@@]1(C)C(=O)N(CCCN2CCC2)C(=O)N1[C@@H]3c1cccc(O)c1 (racemic) [Example 198, (3aSR,10RS)-2-(3-Azetidin-1-yl-propyl)-6-ethoxy-10-(3-hydroxy-phenyl)-3a-methyl-3a,4,9,10-tetrahydro-2,9,10a-triaza-cyclopenta[b]fluorene-1,3-dione] | 39.8 to 251
CC(C)NCCCN1C(=O)N2[C@H](c3cccc(O)c3)c3[nH]c4cc(F)c(Cl)cc4c3C[C@@]2(C)C1=O (racemic) [Example 458, (3aSR,10RS)-6-Chloro-7-fluoro-10-(3-hydroxy-phenyl)-2-(3-isopropylamino-propyl)-3a-methyl-3a,4,9,10-tetrahydro-2,9,10a-triaza-cyclopenta[b]fluorene-1,3-dione] | 39.8 to 251
COc1cc2c3c([nH]c2cc1F)[C@@H](c1cccc(O)c1)N1C(=O)N(CCCN2CCCCC2)C(=O)[C@]1(C)C3 (racemic) [Example 324, (3aSR,10RS)-7-Fluoro-10-(3-hydroxy-phenyl)-6-methoxy-3a-methyl-2-(3-piperidin-1-yl-propyl)-3a,4,9,10-tetrahydro-2,9,10a-triaza-cyclopenta[b]fluorene-1,3-dione] | 39.8 to 251
CC(=O)N1CCN(CCN2C(=O)N3[C@H](c4cccc(O)c4)c4[nH]c5ccc(Br)cc5c4C[C@@]3(C)C2=O)CC1 (racemic) [Example 387, (3aSR,10RS)-2-[2-(4-Acetyl-piperazin-1-yl)-ethyl]-6-bromo-10-(3-hydroxy-phenyl)-3a-methyl-3a,4,9,10-tetrahydro-2,9,10a-triaza-cyclopenta[b]fluorene-1,3-dione] | ≤ 39.8
COCCNCCCN1C(=O)N2[C@H](c3cccc(O)c3)c3[nH]c4ccc(OC)cc4c3C[C@@]2(C)C1=O [Example 490, (3aS,10R)-10-(3-Hydroxy-phenyl)-6-methoxy-2-[3-(2-methoxy-ethylamino)-propyl]-3a-methyl-3a,4,9,10-tetrahydro-2,9,10a-triaza-cyclopenta[b]fluorene-1,3-dione] | ≤ 39.8
C[C@@]12Cc3c([nH]c4ccc(OC(F)F)cc34)[C@@H](c3cccc(O)c3)N1C(=O)N(CCN1CCCCC1)C2=O (racemic) [Example 280, (3aSR,10RS)-6-(1,1-Difluoro-methoxy)-10-(3-hydroxy-phenyl)-3a-methyl-2-(2-piperidin-1-yl-ethyl)-3a,4,9,10-tetrahydro-2,9,10a-triaza-cyclopenta[b]fluorene-1,3-dione] | 39.8 to 251
CCN(CCO)CCCN1C(=O)N2[C@H](c3cccc(O)c3)c3[nH]c4ccc(Br)cc4c3C[C@@]2(C)C1=O (racemic) [Example 231, (3aSR,10RS)-6-Bromo-2-{3-[ethyl-(2-hydroxy-ethyl)-amino]-propyl}-10-(3-hydroyx-phenyl)-3a-methyl-3a,4,9,10-tetrahydro-2,9,10a-triaza-cyclopenta[b]fluorene-1,3-dione] | ≤ 39.8
C[C@@]12Cc3c([nH]c4ccc(Cl)cc34)[C@@H](c3cccc(O)c3)N1C(=O)N(CCCN1CCOCC1)C2=O (racemic) [Example 171, (3aSR,10RS)-6-Chloro-10-(3-hydroxy-phenyl)-3a-methyl-2-(3-morpholin-4-yl-propyl)-3a,4,9,10-tetrahydro-2,9,10a-triaza-cyclopenta[b]fluorene-1,3-dione] | ≤ 39.8
